Source: ChEMBL document CHEMBL1667847, “Quinazolines with intra-molecular hydrogen bonding scaffold (iMHBS) as PI3K/mTOR dual inhibitors” (Bioorg Med Chem Lett, 2011)

How the values were obtained:
[1] = molecular target: T1, Phosphatidylinositol 4,5-bisphosphate 3-kinase catalytic subunit alpha isoform (Homo sapiens, UniProt P42336); assay: Inhibition of PI3Kalpha by fluorescene polarization assay
[2] = molecular target: T2, Serine/threonine-protein kinase mTOR (Homo sapiens, UniProt P42345); assay: Inhibition of mTOR
[3] = molecular target: T2, Serine/threonine-protein kinase mTOR; assay: Inhibition of mTOR at 1 uM
[4] = molecular target: T1, Phosphatidylinositol 4,5-bisphosphate 3-kinase catalytic subunit alpha isoform; assay: Inhibition of PI3Kalpha-phosphorylation at S473 residue in human BT20 cells; type: cell-based, BT-20

T1 sequence (P42336 whole entry, canonical isoform): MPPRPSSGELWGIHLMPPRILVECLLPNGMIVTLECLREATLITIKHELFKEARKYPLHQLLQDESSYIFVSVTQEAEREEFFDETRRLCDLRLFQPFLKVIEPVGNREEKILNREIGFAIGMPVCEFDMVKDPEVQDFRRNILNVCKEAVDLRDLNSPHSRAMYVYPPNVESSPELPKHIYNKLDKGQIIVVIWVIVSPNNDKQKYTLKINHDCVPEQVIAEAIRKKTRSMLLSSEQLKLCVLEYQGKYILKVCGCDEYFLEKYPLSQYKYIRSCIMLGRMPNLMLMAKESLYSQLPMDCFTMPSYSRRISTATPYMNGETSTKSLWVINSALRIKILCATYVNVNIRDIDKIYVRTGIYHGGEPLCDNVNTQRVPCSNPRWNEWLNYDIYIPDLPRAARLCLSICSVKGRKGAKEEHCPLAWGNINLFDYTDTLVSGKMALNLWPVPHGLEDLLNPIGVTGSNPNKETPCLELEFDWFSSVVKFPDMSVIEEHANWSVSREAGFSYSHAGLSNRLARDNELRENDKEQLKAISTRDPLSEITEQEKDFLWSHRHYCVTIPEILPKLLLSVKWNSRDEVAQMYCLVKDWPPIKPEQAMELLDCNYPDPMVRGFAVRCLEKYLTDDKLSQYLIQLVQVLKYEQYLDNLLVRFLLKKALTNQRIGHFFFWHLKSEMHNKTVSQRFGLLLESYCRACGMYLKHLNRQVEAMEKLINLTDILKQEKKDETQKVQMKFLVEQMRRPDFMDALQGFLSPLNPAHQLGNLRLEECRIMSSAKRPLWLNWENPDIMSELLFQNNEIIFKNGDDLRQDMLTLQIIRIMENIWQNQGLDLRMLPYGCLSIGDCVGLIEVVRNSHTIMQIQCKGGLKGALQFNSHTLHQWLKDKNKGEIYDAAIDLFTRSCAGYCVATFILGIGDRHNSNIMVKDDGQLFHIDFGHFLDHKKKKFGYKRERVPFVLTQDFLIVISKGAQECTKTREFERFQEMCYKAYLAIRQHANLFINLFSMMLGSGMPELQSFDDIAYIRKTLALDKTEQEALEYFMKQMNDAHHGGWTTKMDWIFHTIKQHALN

Structure (SMILES) | Ki [1] [nM] | Ki [2] [nM] | inhibition [3] [%] | IC50 [4] [nM]
Cc1ccc(NC(=O)c2c(C)ccc3c(N)nc(C)nc23)cn1 | 4550 | 3250 |  | 
COc1ccc(NC(=O)c2c(C)ccc3c(N)nc(C)nc23)cn1 | > 100 | 1000 | 15 | 
Cc1nc(N)c2ccc(C)c(C(=O)Nc3cnc4[nH]ccc4c3)c2n1 | 631 | 216 |  | 
Cc1nc(N)c2ccc(C)c(C(=O)Nc3ccc(N(C)C)nc3)c2n1 | > 100 |  |  | 
Cc1nc(N)c2ccc(C)c(C(=O)Nc3cn[nH]c3)c2n1 | > 100 |  |  | 
Cc1nc(N)c2ccc(C)c(C(=O)Nc3ccn[nH]3)c2n1 | 4550 | 984 |  | 
Cc1nc(N)c2cc(CN(C)C)cc(C(=O)Nc3ccn[nH]3)c2n1 | 188 | 1330 |  | 
Cc1nc(N)c2cc(CN3CCOCC3)cc(C(=O)Nc3ccn[nH]3)c2n1 | 15 | 13 |  | 
Cc1nc(N)c2cccc(C(=O)Nc3ccc(N(C)C)nc3)c2n1 | 54 | 1000 | 57 | 

The next molecules have a lower Ki [1] than those just listed; values first:

Ki [1] [nM] | Ki [2] [nM] | inhibition [3] [%] | IC50 [4] [nM] | Structure (SMILES)
1 | 5 |  |  | Cc1nc(N)c2cccc(C(=O)Nc3cnc4[nH]ccc4c3)c2n1
12 | 162 |  |  | Cc1cc(C(=O)Nc2ccc(N(C)C)nc2)c2nc(C)nc(N)c2c1
5 | 84 |  | 24 | Cc1cc(C(=O)Nc2cn[nH]c2)c2nc(C)nc(N)c2c1
6 | 21 |  |  | Cc1nc(N)c2cccc(C(=O)Nc3cn[nH]c3)c2n1
0.5 | 31 |  | 112 | Cc1ccc(NC(=O)c2cccc3c(N)nc(C)nc23)cn1
0.5 | 265 |  |  | COc1ccc(NC(=O)c2cc(C)cc3c(N)nc(C)nc23)cn1
0.3 | 17 |  | 43 | Cc1cc(C(=O)Nc2cnc3[nH]ccc3c2)c2nc(C)nc(N)c2c1
0.5 | 66 |  | 88 | Cc1cc(C(=O)Nc2ccc(C)nc2)c2nc(C)nc(N)c2c1
7 | 3 |  | 35 | Cc1cc(C(=O)Nc2ccn[nH]2)c2nc(C)nc(N)c2c1
